Laboratory results from patent US9000003B2, “Anti-folate antimalarials with dual-binding modes and their preparation” (priority 2011, dated 2015).
Counter-ions that a name gives are not always drawn. Like-named read-outs stand apart in the source and are kept apart here.

Assays:
Assay type in all cases: cell-based, Plasmodium falciparum
[1] = test system: P. falciparum Cs1-2 (triple mutant, C59R+S108N+I164L); test: In vitro anti-Plasmodial activity against Cs1-2
Procedure: (§1) It is an object of the invention to provide anti-folate antimalarials with dual-binding modes, and pharmaceutically acceptable salts thereof, for substantially inhibiting dihydrofolate reductase enzymes. Enzymes, comprising dihydrofolate reductase of Plasmodium falciparum, wild-type, double (C59R+S108N), triple (N51+C59R+S108N, C59R+S108N+1164L), and quadruple (N51+C59R+S108N+I164L) mutants were prepared. The inhibition constants (Ki) of the enzymes with the invented compounds were investigated using a standard method. In vitro antimalarial activity (IC50) with malaria parasites carrying Tm4/8.2 (wild type), K1CB1 (double mutant, C59R+S108N), W2 (triple mutant N51I+C59R+S 108N), Cs1-2 (triple mutant, C59R+S108N+I164L), and V1/S (quadruple mutant, N51I+C59R+S108N+I164L) were also investigated using a standard method.

[2] = test system: P. falciparum Tm4/8.2 (wild type); test: In vitro anti-Plasmodial activity against Tm4/8.2; conditions: P. falciparum Tm4/8.2, wild type DHFR
Procedure: as §1

[3] = test system: P. falciparum V1/S (quadruple mutant, N51I+C59R+S108N+I164L); test: In vitro anti-Plasmodial activity against V1/S
Procedure: as §1

[4] = test system: P. falciparum W2 (triple mutant N51I+C59R+S108N); test: In vitro anti-Plasmodial activity against W2
Procedure: as §1

[5] = test system: P. falciparum K1CB1 (double mutant, C59R+S108N); test: In vitro anti-Plasmodial activity against K1CB1
Procedure: as §1

[6] = Plasmodium falciparum, read-out: IC50 Cs1-2, P. falciparum Cs1-2, triple mutant
[7] = Plasmodium falciparum, read-out: IC50 V1/S, P. falciparum V1/S, quadruple mutant
[8] = Plasmodium falciparum, W2, read-out: IC50 W2, P. falciparum W2, triple mutant
[9] = Plasmodium falciparum, read-out: IC50 K1CB1, P. falciparum K1CB1, double mutant

CCc1nc(N)nc(N)c1-c1ccc(Cl)cc1 [Pyr, Pyrimethamine, reference compound]
IC50 [1, 6]: 37000 ± 5980 nM | IC50 ([2]; Plasmodium falciparum): 66 ± 30 nM | IC50 [3, 7]: > 100000 nM | IC50 [4, 8]: 39000 ± 5420 nM | IC50 [5, 9]: 27000 ± 3330 nM

CCc1nc(N)nc(N)c1OCCCOc1ccc(-c2c(N)nc(N)nc2CC)cc1 [Compound D, 5-(4′-(3″-(2,4-diamino-6-ethylpyrimidin-5-yloxy)propoxy)phenyl)-6-ethylpyrimidine-2,4-diamine dihydrochloride]
IC50 ([1]; read-out: IC50 Cs1-2, P. falciparum Cs1-2, triple mutant, dihydrochloride): 3950 ± 360 nM | IC50 ([2]; dihydrochloride): 63 ± 10 nM | IC50 ([3]; read-out: IC50 V1/S, P. falciparum V1/S, quadruple mutant, dihydrochloride): 4400 ± 710 nM | IC50 ([4]; read-out: IC50 W2, P. falciparum W2, triple mutant, dihydrochloride): 2380 ± 110 nM | IC50 ([5]; read-out: IC50 K1CB1, P. falciparum K1CB1, double mutant, dihydrochloride): 1840 ± 310 nM

CCc1nc(N)nc(N)c1-c1ccc(OCCCOc2ccc(-c3c(N)nc(N)nc3CC)cc2)cc1 [Compound E, 5-(4′-3″-(4″′-(2,4-diamino-6-ethylpyrimidin-5-yl)phenoxy)propoxy)phenyl)-6-ethylpyrimidine-2,4-diamine dihydrochloride]
IC50 [1, 6]: 310 ± 20 nM | IC50 ([2]; Plasmodium falciparum): 35 nM | IC50 [3, 7]: 330 ± 20 nM | IC50 [4, 8]: 280 ± 20 nM | IC50 [5, 9]: 330 ± 40 nM

CCc1nc(N)nc(N)c1OCCCOc1ccc(-c2c(N)nc(N)nc2CC)cc1 [Compound B, 5-(4′-(3″-(2,4-diamino-6-ethylpyrimidin-5-yloxy)propoxy)phenyl)-6-ethylpyrimidine-2,4-diamine]
IC50 ([1]; read-out: IC50 Cs1-2, P. falciparum Cs1-2, triple mutant): > 1000 nM | IC50 ([2]; Plasmodium falciparum): 69 ± 10 nM | IC50 ([3]; read-out: IC50 V1/S, P. falciparum V1/S, quadruple mutant): > 1000 nM | IC50 ([4]; read-out: IC50 W2, P. falciparum W2, triple mutant): > 1000 nM | IC50 [5, 9]: > 1000 nM

CCc1nc(N)nc(N)c1OCCCOc1cccc(-c2c(N)nc(N)nc2CC)c1 [Compound A, 5-(3′-(3″-(2,4-diamino-6-ethylpyrimidin-5-yloxy)propoxy)phenyl)-6-ethylpyrimidine-2,4-diamine]
IC50 [1, 6]: 510 ± 80 nM | IC50 ([2]; Plasmodium falciparum): 290 ± 50 nM | IC50 [3, 7]: 1720 ± 690 nM | IC50 [4, 8]: 250 ± 80 nM | IC50 [5, 9]: 220 ± 60 nM
